Assay results as given in the supplement of paper PMC13380429.

What was measured:
[1] = system: HepG2; assay: cell viability relative to DMSO; higher = less toxic; conditions: 72 h
[2] = system: Vero E6; assay: as above; conditions: 72 h
[3] = system: U2OS; assay: as above; conditions: 72 h
[4] = system: Calu-3; assay: as above; conditions: 72 h
[5] = system: Caco-2; assay: as above; conditions: 72 h
[6] = system: HepG2; assay: relative viability EC50 (midpoint between 100% and the lowest measured viability); higher = less toxic; conditions: 72 h
[7] = system: Vero E6; assay: as above; conditions: 72 h
[8] = system: U2OS; assay: as above; conditions: 72 h
[9] = system: Calu-3; assay: as above; conditions: 72 h
[10] = system: Caco-2; assay: as above; conditions: 72 h
[11] = system: HepG2; assay: drug sensitivity score (DSS) for viability; higher = more toxic; extreme values may be limits of the assay; conditions: 72 h
[12] = system: Vero E6; assay: as above; conditions: 72 h
[13] = system: U2OS; assay: as above; conditions: 72 h
[14] = system: Calu-3; assay: as above; conditions: 72 h
[15] = system: Caco-2; assay: as above; conditions: 72 h
[16] = system: A549-ACE2 infected with SARS-CoV-2; assay: cell count relative to DMSO; higher = less toxic; conditions: 24 h
[17] = system: A549-ACE2; assay: drug-induced phospholipidosis relative to tamoxifen; higher = more phospholipidosis
[18] = system: A549-ACE2 infected with SARS-CoV-2; assay: SARS-CoV-2 infection rate relative to DMSO; higher = more infection; conditions: 24 h
[19] = system: A549-ACE2 infected with SARS-CoV-2; assay: morphology score (similarity to uninfected cells); higher = more like uninfected cells; conditions: 24 h

COc1cc(C[C@@H](CO[C@@H]2O[C@H](CO)[C@@H](O)[C@H](O)[C@H]2O)[C@H](CO[C@@H]2O[C@H](CO)[C@@H](O)[C@H](O)[C@H]2O)Cc2ccc(O)c(OC)c2)ccc1O [secoisolariciresinol-diglucoside]
cell viability [%]
Conditions | [1] | [2] | [3] | [4] | [5]
1 nM | 98.7 | 95.6 | 94 | 103 | 100
10 nM | 104 | 101 | 96.7 | 92.9 | 93.6
100 nM | 102 | 93.6 | 101 | 87.4 | 96.7
1000 nM | 111 | 97.8 | 101 | 103 | 99.4
10000 nM | 110 | 110 | 97.9 | 102 | 108

Conditions | drug sensitivity score | relative viability EC50 [µM]
[6] | – | > 10
[7] | – | > 10
[8] | – | > 10
[9] | – | > 10
[10] | – | > 10
[11] | 0 | –
[12] | 0 | –
[13] | 0 | –
[14] | 0 | –
[15] | 0 | –

CC(SC(=O)c1cccs1)C(=O)NCC(=O)O (stereo not drawn) [stepronin]
cell viability [%]
Conditions | [1] | [2] | [3] | [4] | [5]
1 nM | 106 | 109 | 96.6 | 91.9 | 112
10 nM | 102 | 91.9 | 104 | 106 | 84.4
100 nM | 105 | 108 | 93.5 | 97.6 | 96.1
1000 nM | 88.6 | 101 | 99 | 110 | 103
10000 nM | 97 | 98.8 | 97.1 | 97.5 | 103

Conditions | drug sensitivity score | relative viability EC50 [µM]
[6] | – | > 10
[7] | – | > 10
[8] | – | > 10
[9] | – | > 10
[10] | – | > 10
[11] | 0.3 | –
[12] | 0 | –
[13] | 0 | –
[14] | 0 | –
[15] | 0 | –

C[S+]([O-])CCCCN=C=S (stereo not drawn) [sulforaphane]
Conditions | SARS-CoV-2 infection rate, [18] [%] | cell count, [16] [%] | cell viability, [1] [%] | cell viability, [2] [%] | cell viability, [3] [%] | cell viability, [4] [%] | cell viability, [5] [%] | morphology score, [19]
1 nM | – | – | 90.5 | 103 | 100 | 91 | 92.1 | –
10 nM | – | – | 89.7 | 108 | 104 | 91 | 107 | –
100 nM | – | – | 90.6 | 104 | 97.7 | 96 | 104 | –
0.3 µM | 95 | 104 | – | – | – | – | – | 0.21
1000 nM | – | – | 79.8 | 94.6 | 97.9 | 108 | 91.3 | –
3 µM | 95 | 99 | – | – | – | – | – | -0.05
10000 nM | – | – | 72.3 | 90.2 | 77.4 | 97.9 | 70.9 | –
10 µM | 79 | 85 | – | – | – | – | – | 0.33
30 µM | 18 | 109 | – | – | – | – | – | 0.82

drug-induced phospholipidosis [%], [17]
Conditions | 0.3 µM | 0.833333 µM | 3.33333 µM | 6.66667 µM | 10 µM | 30 µM
24 h | 1.81 | -7.24 | -2.29 | 1.54 | 3.49 | 22.7
48 h | 1.78 | -7.01 | -5.48 | -4.04 | -0.65 | 15.9
72 h | -0.306 | -6.99 | -5.48 | -5.9 | -2.75 | 7.99

Conditions | drug sensitivity score | relative viability EC50 [µM]
[7] | – | > 10
[8] | – | > 10
[9] | – | > 10
[11] | 4.1 | –
[12] | 0 | –
[13] | 1.1 | –
[14] | 0 | –
[15] | 2.5 | –
